Experimental data published in patent publication US20170298437A1, “METHODS AND USES RELATED TO RHABDOID TUMORS” (The Hospital For Sick Children, priority 2016, published 2017).
Entries after “also recorded” stand apart in the source; their conditions may differ.

Experiments:
group 2 ATRT cell lines = experiment: MTS cell viability assay on group 2 ATRT cell lines; format: cell-based, human; settings: for changes in growth / sensitivity: group 2 cell lines (SH, CHLA06, BT16, BT12), epigenetic inhibitors
Protocol: (§1) ATRT cell line CHLA02 (ATCC, Cat #CRL-3020), CHLA04 (ATCC, Cat #CRL-3036) were cultured according to the manufacturer's protocol. CHLA05 and CHLA06 cells, which were derived from primary ATRTs by Dr. Anat Erdreich-Epstein from the Children's Hospital of Los Angeles, were cultured in DMEM/F12 supplemented with 20 ng/mL FGF, 20 ng/mL EGF, and 1× B27 supplement. SH cells were obtained from Dr. Shih Hwa Choiu at Taipei Veterans General Hospital and was cultured as previously described (Kao et al., 2005). BT12 and BT16, which were kind gifts from Dr. Peter Houghton at Nationalwide Children's Hospital, were cultured in RPMI-1640 supplemented with 10% FBS. ATRT 78C cells was established from a corresponding primary ATRT (T13; diagnosed at The Hospital for Sick Children) and cultured in Neurobasal medium supplemented with 75 ng/mL BSA, 10 ng/mL FGF1, 10 ng/mL EGF, 2 ug/mL Heparin, 1× B27 and 1× N2 supplements. CHLA266 was grown in IMEM media with 10% FBS and 1× ITS. G401 (ATCC, Cat #CRL-1441) was grown in McCoy's 5A media with 10% FBS.
(§2) To assess effects of NOTCH and BMP signaling on ATRT cell phenotypes, cells were treated with N-[N-(3,5-Difluorophenacetyl)-L-alanyl]-S-phenylglycine t-butyl ester (DAPT; EMD Chemicals, Germany, Cat #565770) or Dorsomorphin (DM; Sigma-Aldrich, USA, Cat #P5499) and analyzed using MTS assays for cell viability. […] For epigenomic drug screening experiments, conditions were set up identically with the exception of absorbance readings being taken at 3 and 7 days post-treatment. Cell viability was determined based on mean cell absorbance at 492 nm.

ATRT cell lines = experiment: MTS cell viability screen of epigenetic probes on the whole ATRT cell line panel (4 group 1 and 4 group 2); format: cell-based, human; settings: 4 group 1 and 4 group 2 cell lines, varying doses
From the text: Recent studies have reported promising therapeutic agents targeting a number of epigenetic and signaling pathways in ATRTs (Ginn and Gajjar, 2012), however the relevance of these agents to ATRT sub-types is unknown as these prior studies have examined a very limited number of cell lines. To identify additional ATRT sub-group specific pathways/targets, the effects of 12 small molecule inhibitors/chemical probes targeting epigenetic pathways on growth of 4 group 1 (CHLA266, CHLA04, 02, 05) and 4 group 2 ATRT (SH, CHLA06, BT16 and BT12) cell lines (FIG. 18A) were tested.
as §1, §2

group 1 ATRT cell lines = experiment: MTS cell viability assay on group 1 ATRT cell lines; format: cell-based, human; settings: for growth inhibitory effects / sensitivity: epigenetic inhibitors
Protocol: as §1, §2

[1] = tested on: G401, a cell line derived from a renal rhabdoid tumor; experiment: Growth of G401 renal rhabdoid tumor cell line; format: cell-based, human; settings: data not shown
Protocol: as §1

[2] = tested on: group 1 (CHLA02) ATRT cell line; experiment: TUNEL assay in group 1 ATRT cell line; format: cell-based, human
Protocol: TUNEL assays were performed using in situ cell death detection kit, Fluorescein, according to manufacturer's instructions (Roche, West Sussex, UK). Pictures were taken at 20× magnification. Percentage of TUNEL positive population was calculated with respect to DAPI-positive cells, in five random fields per cell cultured slide, and averaged as representative population. Fold-changes were obtained by comparing with untreated control. Cell migration and invasive phenotypes of ATRT cell lines was assessed using a Transwell Boyden chamber assay according to manufacturer's instructions (BD Science). In brief, 3.5×10^3 cells were seeded onto membranes with 8 μm pores in Boyden chambers, and incubated at 37° C. Membranes were removed after 18 hours and examined at 10× magnification under the microscope. To enumerate the number of cells that had invaded and migrated, cell counts from five random fields on the membrane was used to estimate the total number of cells migrated across the transwell membrane.

NOTCH signaling = experiment: Western blot and qRT-PCR analyses of NOTCH signaling in group 1 ATRT cell lines; format: cell-based, human; settings: group 1 cell lines 78C, CHLA02, CHLA05
Protocol: Nuclear and whole cell lysates were prepared using cytosol lysis buffer or nuclear buffer F (Sommer et al., 1998) respectively and immunoblotted with antibodies to SMARCB1/BAF47 (BD Biosciences, USA, Cat #612110), cleaved NOTCH1 (Cell Signaling, USA, Cat #2421S), pSMAD1/5 (Cell Signaling, USA, Cat #95165), SMAD1 (Cell Signaling, USA, Cat #9743S) or a-Tubulin (Sigma-Aldrich, USA, Cat #T9026) as per standard methods. Phospho-PDGFRβ P70 was obtained from Santa Cruz Biotechnology (Santa Cruz, Calif. USA, Cat #sc-12909-R). BAF47 immuno-staining of tumor samples was performed by the Hospital for Sick Children Pathology Department (Toronto, ON, Canada) as per standard clinical protocols.
cDNAs were synthesized from high quality RNA using the High Capacity cDNA Reverse Transcription Kit (Applied Biosystem, Cat #4368814) as per the manufacturer's instructions and qRT-PCR analyses were performed using purchased Taqman probes and the TaqMan® Gene Expression Master Mix (Invitrogen) (BAMBI, SOST, BCR [exon2, 8, 16, 18, 21, 23], RGL4, CHCHD10, MMP11, SMARCB1 [exon 2, 5]). A subset of analyses was performed with Platinum SYBR Green qPCR reagent kit (Invitrogen) as per the manufacturer's protocol with in-house designed primers to amplify invariant exons (HES1, HES5). […] Synthesized cDNA were analysed with gene specific probes using the Platinum SYBR green qPCR reagent kit. […]

[3] = cited from earlier work

Row | SMILES | changes in growth / sensitivity (group 2 ATRT cell lines; varying doses, MTS) | effect on ATRT cell growth across sub-groups (ATRT cell lines) | growth inhibitory effects / sensitivity (group 1 ATRT cell lines; group 1 ATRT cell lines, MTS) | other results
1 | COc1cc2c(NC3CCN(C(C)C)CC3)nc(C3CCCCC3)nc2cc1OCCCN1CCCC1 [UNC0638] | 3 of the 4 group 2 cell lines showed no changes in growth and largely insensitive | sub-group specific effect | only group 1 ATRT cell lines were sensitive | –
2 | CCCc1cc(C)[nH]c(=O)c1CNC(=O)c1cc(-c2ccc(N3CCN(C(C)C)CC3)nc2)cc2c1cnn2C(C)C [UNC1999] | 3 of the 4 group 2 cell lines showed no changes in growth and largely insensitive | sub-group specific effect | growth inhibitory effects were observed only in group 1 ATRT cell lines | –
3 | Cc1cn(-c2cc(NC(=O)c3ccc(C)c(Nc4nccc(-c5cccnc5)n4)c3)cc(C(F)(F)F)c2)cn1 [Nilotinib] | – | – | – | growth / sensitivity to tyrosine kinase inhibitor (group 2 ATRT cell lines; group 2 ATRT cell lines, MTS, 5 days): robustly diminished growth; also recorded: sensitive; growth of G401 [1]: robustly inhibit the growth; growth / sensitivity to tyrosine kinase inhibitor (group 1 ATRT cell lines; group 1 ATRT cell lines, MTS, 5 days): resistant
4 | Cc1sc2c(c1C)C(c1ccc(Cl)cc1)=N[C@@H](CC(=O)OC(C)(C)C)c1nnc(C)n1-2 [JQ1, (S)-tent-butyl 2-(4-(4-chlorophenyl)-2,3,9-trimethyl-6H-thieno[3,2-f][1,2,4]triazolo[4,3-a][1,4]diazepin-6-yl)acetate] | 3 of the 4 group 2 cell lines showed no changes in growth | sub-group specific effect | growth inhibitory effects were observed only in group 1 ATRT cell lines | –
5 | C[C@H](NC(=O)Cc1cc(F)cc(F)c1)C(=O)N[C@H](C(=O)OC(C)(C)C)c1ccccc1 [DAPT, N-[N-(3,5-difluorophenacetyl)-L-alanyl]-S-phenylglycine t-butyl ester] | – | – | – | cell death / apoptosis (TUNEL) [2]: increased cell death; also recorded: induced apopotosis; NICD expression (NOTCH signaling; Western blot, increasing doses): dose dependent decrease in NICD expression; NOTCH transcriptional targets, HES1 and HESS (NOTCH signaling; qRT-PCR, four days post-treatment): downregulation; cell line growth (cell viability, MTS) (group 2 ATRT cell lines; group 2A/B (SH, CHLA06, BT16), DAPT or DM, varying doses, days 1-5, relative to DMSO): no significant effects on cell growth; also recorded: largely insensitive; cell line growth (cell viability, MTS) (group 1 ATRT cell lines; group 1 (78C, CHLA05, CHLA02), DAPT or DM, varying doses, days 1-5, relative to DMSO): inhibited group 1 and 2 ATRT cell line growth in a dose dependent manner; also recorded: sensitive
6 | Cc1nc(Nc2ncc(C(=O)Nc3c(C)cccc3Cl)s2)cc(N2CCN(CCO)CC2)n1 [Dasatinib] | – | – | – | blood brain permeability [3]: demonstrated blood brain permeability
7 | O=C(/C=C/c1ccc(CN(CCO)CCc2c[nH]c3ccccc23)cc1)NO [LAQ824] | – | significantly diminished growth of all cell lines; also recorded: no sub-type specific effects | – | –
